Where “and” joins values, the source holds several entries; their conditions need not be identical. Equal entries are not always repeated. Toxic doses and inconclusive results are not listed.
Tested on: L1210 leukemia ip in BDF1 mice, survival T/C
Assay: NCI In Vivo Anticancer Drug Screen. Data for tumor model L1210 Leukemia (intraperitoneal) in B6D2F1 (BDF1) mice
Conditions: endpoint: mean survival time, higher = longer survival
Method in brief: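 Ratio derived from survival: compound-dosed mice over vehicle-dosed mice, all bearing a transplantable tumor.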

[1] = dose: 75.0 mg/kg/injection, schedule: Q01DX001 (ip), vehicle: saline
[2] = dose: 150.0 mg/kg/injection, schedule: Q01DX001 (ip), vehicle: saline
[3] = dose: 300.0 mg/kg/injection, schedule: Q01DX001 (ip), vehicle: saline
[4] = dose: 100.0 mg/kg/injection, schedule: Q01DX001 (ip), vehicle: saline
[5] = dose: 200.0 mg/kg/injection, schedule: Q01DX001 (ip), vehicle: saline
[6] = dose: 100.0 mg/kg/injection, schedule: Q01DX009 (ip), vehicle: Klucel (hydroxypropylcellulose) (HPC)
[7] = dose: 200.0 mg/kg/injection, schedule: Q01DX009 (ip), vehicle: Klucel (hydroxypropylcellulose) (HPC)
[8] = dose: 400.0 mg/kg/injection, schedule: Q01DX009 (ip), vehicle: Klucel (hydroxypropylcellulose) (HPC)
[9] = dose: 100.0 mg/kg/injection, schedule: Q04DX003 (ip), vehicle: saline
[10] = dose: 200.0 mg/kg/injection, schedule: Q04DX003 (ip), vehicle: saline
[11] = dose: 50.0 mg/kg/injection, schedule: Q01DX001 (ip), vehicle: saline
[12] = dose: 400.0 mg/kg/injection, schedule: Q01DX001 (ip), vehicle: saline
[13] = dose: 100.0 mg/kg/injection, schedule: Q04DX003 (ip), vehicle: Klucel (hydroxypropylcellulose) (HPC)
[14] = dose: 200.0 mg/kg/injection, schedule: Q04DX003 (ip), vehicle: Klucel (hydroxypropylcellulose) (HPC)
[15] = dose: 400.0 mg/kg/injection, schedule: Q04DX003 (ip), vehicle: Klucel (hydroxypropylcellulose) (HPC)
[16] = dose: 100.0 mg/kg/injection, schedule: Q01DX009 (ip), vehicle: saline with Tween-80
[17] = dose: 200.0 mg/kg/injection, schedule: Q01DX009 (ip), vehicle: saline with Tween-80
[18] = dose: 400.0 mg/kg/injection, schedule: Q01DX009 (ip), vehicle: saline with Tween-80
[19] = dose: 400.0 mg/kg/injection, schedule: Q04DX003 (ip), vehicle: saline
[20] = dose: 25.0 mg/kg/injection, schedule: Q04DX003 (ip), vehicle: saline
[21] = dose: 50.0 mg/kg/injection, schedule: Q04DX003 (ip), vehicle: saline

O=C(Nc1ccccc1)C(CCCN1C(=O)c2ccccc2C1=O)N1C(=O)c2ccccc2C1=O (stereo not drawn)
T/C [1]: 100 % of control | T/C [2]: 104 % of control | T/C [3]: 96 % of control

Cc1ccc(NC(=O)OCCCl)cc1
T/C [4]: 117 % of control | T/C [5]: 112 % of control

O=C(Nc1cccc(C2=NCCN2)c1)c1ccc(C(=O)Nc2cccc(C3=NCCN3)c2)cc1
T/C (dose: 2.5 mg/kg/injection, schedule: Q01DX Z (ip), vehicle: saline): 95 % of control | T/C (dose: 5.0 mg/kg/injection, schedule: Q01DX Z (ip), vehicle: saline): 111 % of control

Cc1cccc(NC(=O)C2CCC(CC3CCCCC3)CC2)c1 (stereo not drawn)
T/C (dose: 50.0 mg/kg/injection, schedule: Q01DX001 (ip), vehicle: Klucel (hydroxypropylcellulose) (HPC)): 89 % of control | T/C (dose: 100.0 mg/kg/injection, schedule: Q01DX001 (ip), vehicle: Klucel (hydroxypropylcellulose) (HPC)): 89 % of control | T/C (dose: 200.0 mg/kg/injection, schedule: Q01DX001 (ip), vehicle: Klucel (hydroxypropylcellulose) (HPC)): 87 % of control

O=C(N/N=C/c1ccc(Cl)cc1)C(O)c1ccccc1 (stereo not drawn)
T/C [6]: 87 % of control | T/C [7]: 87 % of control | T/C [8]: 89 % of control

OCCCN1CCC2(CC1)SSC1(CCN(CCCO)CC1)S2
T/C (dose: 50.0 mg/kg/injection, schedule: Q01DX009 (ip), vehicle: saline): 95 % of control | T/C (dose: 100.0 mg/kg/injection, schedule: Q01DX009 (ip), vehicle: saline): 101 % of control | T/C [9]: 95 % of control | T/C [10]: 98 % of control

COc1ccc2nc3ccccc3c(NCCNCCO)c2c1
T/C (dose: 5.0 mg/kg/injection, schedule: Q01DX001 (ip), vehicle: saline): 97 % of control | T/C (dose: 6.0 mg/kg/injection, schedule: Q01DX Z (ip), vehicle: carboxymethylcellulose (CMC)): 98 % of control | T/C (dose: 9.0 mg/kg/injection, schedule: Q01DX Z (ip), vehicle: carboxymethylcellulose (CMC)): 92 % of control | T/C (dose: 10.0 mg/kg/injection, schedule: Q01DX001 (ip), vehicle: saline): 106 % of control | T/C (dose: 20.0 mg/kg/injection, schedule: Q01DX001 (ip), vehicle: saline): 101 % of control | T/C (dose: 40.0 mg/kg/injection, schedule: Q01DX001 (ip), vehicle: saline): 97 % of control | T/C (dose: 80.0 mg/kg/injection, schedule: Q01DX001 (ip), vehicle: saline): 92 % of control

CCOC(=O)Nc1ccc(F)cc1OC
T/C (dose: 100.0 mg/kg/injection, schedule: Q04DX002 (ip), vehicle: other): 107 % of control | T/C (dose: 200.0 mg/kg/injection, schedule: Q04DX002 (ip), vehicle: other): 104 % of control | T/C (dose: 400.0 mg/kg/injection, schedule: Q04DX002 (ip), vehicle: other): 96 % of control

c1ccc2c(c1)ccn1cnnc21
T/C [11]: 97 % of control | T/C [4]: 101 % of control | T/C [5]: 109 % of control

CN(C)c1n[nH]c(=O)[nH]c1=O
T/C [4]: 91 % of control | T/C [5]: 114 % of control | T/C [12]: 93 % of control

CC(C)=CCC(=O)NC(=O)NS(=O)(=O)c1ccc(Cl)cc1
T/C [13]: 100 % of control | T/C [14]: 177 % of control | T/C [15]: 94 % of control

c1ccc(CSC(Cc2ccccc2)(SCc2ccccc2)c2ccccc2)cc1
T/C [11]: 102 % of control | T/C [4]: 104 % of control | T/C [5]: 98 % of control | T/C [12]: 104 % of control

CCOC(=O)CNC(=O)OCCOc1ccc(-c2ccccc2)cc1
T/C [16]: 98 % of control | T/C [17]: 97 % of control | T/C [18]: 95 % of control

CN(C)CC1C(O)C2CCN1CC2 (stereo not drawn)
T/C [9]: 103 % of control | T/C [10]: 103 % of control

NC(CCCc1ccccc1)C(=O)O (stereo not drawn)
T/C (dose: 50.0 mg/kg/injection, schedule: Q04DX003 (ip), vehicle: Klucel (hydroxypropylcellulose) (HPC)): 98 % of control | T/C [13]: 96 % of control | T/C [14]: 88 % of control | T/C [15]: 94 % of control

CC(C)(C)N=C(N)N[N+](=O)[O-]
T/C (dose: 50.0 mg/kg/injection, schedule: Q04DX002 (ip), vehicle: Klucel (hydroxypropylcellulose) (HPC)): 104 % of control | T/C (dose: 100.0 mg/kg/injection, schedule: Q04DX002 (ip), vehicle: Klucel (hydroxypropylcellulose) (HPC)): 100 % of control | T/C (dose: 200.0 mg/kg/injection, schedule: Q04DX002 (ip), vehicle: Klucel (hydroxypropylcellulose) (HPC)): 104 % of control

CCN(C(=O)Nc1ccc([N+](=O)[O-])cc1OC)c1cccc(C)c1
T/C [6]: 94 % of control | T/C [7]: 97 % of control | T/C [8]: 100 % of control

Cc1ccc(/C([O-])=C(\C(=S)Nc2cccc(C)c2)[n+]2ccccc2)cc1
T/C [16]: 103 % of control and 112 % of control | T/C (dose: 100.0 mg/kg/injection, schedule: Q04DX002 (ip), vehicle: saline with Tween-80): 93 % of control and 95 % of control | T/C [17]: 93 % of control and 100 % of control | T/C (dose: 200.0 mg/kg/injection, schedule: Q04DX002 (ip), vehicle: saline with Tween-80): 93 % of control and 115 % of control | T/C [18]: 95 % of control and 101 % of control | T/C (dose: 400.0 mg/kg/injection, schedule: Q04DX002 (ip), vehicle: saline with Tween-80): 98 % of control and 107 % of control

CCS(=O)(=O)C(S(C)(=O)=O)S(=O)(=O)C(C)C (stereo not drawn)
T/C [13]: 92 % of control | T/C [14]: 96 % of control | T/C [15]: 89 % of control

CCCCCCCCCCCCCCCCCC(=O)NCCCNC(=O)CCCCCCCCCCCCCCCCC
T/C [1]: 98 % of control | T/C [2]: 95 % of control | T/C [3]: 106 % of control

COc1ccc(CC(C)N)cc1OC (stereo not drawn)
T/C (dose: 100.0 mg/kg/injection, schedule: Q04DX002 (ip), vehicle: saline): 105 % of control | T/C (dose: 200.0 mg/kg/injection, schedule: Q04DX002 (ip), vehicle: saline): 102 % of control

Cc1cccc(C)c1NC(=O)N(CCO)C1CCCCC1
T/C [9]: 102 % of control | T/C [10]: 112 % of control | T/C [19]: 104 % of control

NS(=O)(=O)c1ccc(S(=O)(=O)NC2CCCCC2)cc1
T/C [6]: 101 % of control | T/C [7]: 101 % of control

O=c1cc(CN2CCN(CCO)CC2)[nH]c(=O)[nH]1
T/C [9]: 101 % of control | T/C [10]: 95 % of control | T/C [19]: 95 % of control

CC1CCC(C)C([N+](C)(C)C)C1 (stereo not drawn)
T/C (dose: 12.5 mg/kg/injection, schedule: Q04DX003 (ip), vehicle: saline): 98 % of control | T/C [20]: 98 % of control | T/C [21]: 95 % of control | T/C (dose: 75.0 mg/kg/injection, schedule: Q04DX003 (ip), vehicle: saline): 93 % of control

CCCCC1(C(C)C)C(=O)NC(=O)N(C)C1=O (stereo not drawn)
T/C [1]: 100 % of control | T/C [2]: 105 % of control

NCCOB(c1ccccc1)c1ccccc1
T/C (dose: 3.8 mg/kg/injection, schedule: Q01DX009 (ip), vehicle: saline with Tween-80): 94 % of control | T/C (dose: 7.5 mg/kg/injection, schedule: Q01DX009 (ip), vehicle: saline with Tween-80): 105 % of control | T/C (dose: 15.0 mg/kg/injection, schedule: Q01DX009 (ip), vehicle: saline with Tween-80): 91 % of control

Cc1cc(O)c(O)c(S(=O)(=O)c2ccccc2)c1
T/C (dose: 87.5 mg/kg/injection, schedule: Q01DX009 (ip), vehicle: saline with Tween-80): 94 % of control | T/C (dose: 175.0 mg/kg/injection, schedule: Q01DX009 (ip), vehicle: saline with Tween-80): 96 % of control | T/C (dose: 350.0 mg/kg/injection, schedule: Q01DX009 (ip), vehicle: saline with Tween-80): 100 % of control

Cc1cccc(NC(=O)NC(C)C)c1C
T/C [6]: 109 % of control | T/C [13]: 102 % of control | T/C [7]: 109 % of control | T/C [14]: 96 % of control | T/C [8]: 102 % of control | T/C [15]: 98 % of control

CCC(C1CCC(O)CC1)C(CC)C1CCC(c2ccc(=O)oc2)C1 (stereo not drawn)
T/C [20]: 100 % of control | T/C [21]: 103 % of control | T/C [9]: 103 % of control

CC[C@](C)(O)C(=O)O[C@H]1C(=O)O[C@@H]2C[C@H]3C(C)=CC(=O)[C@@H](O)[C@]3(C)[C@H]3[C@@]4(O)OC[C@]32[C@@H]1[C@@H](C)[C@H]4O
T/C (dose: 0.2 mg/kg/injection, schedule: Q01DX009 (ip), vehicle: saline): 98 % of control | T/C (dose: 0.3 mg/kg/injection, schedule: Q01DX009 (ip), vehicle: saline): 100 % of control | T/C (dose: 0.44 mg/kg/injection, schedule: Q01DX009 (ip), vehicle: saline): 92 % of control | T/C (dose: 0.66 mg/kg/injection, schedule: Q01DX009 (ip), vehicle: saline): 92 % of control | T/C (dose: 1.0 mg/kg/injection, schedule: Q01DX009 (ip), vehicle: saline): 102 % of control
